Read-outs that look alike come from different tables or passages of the source.
Assays:
[1] = approx. 48 mg in 400 mL, 36.8° C., approximately 12 hours
Experimental: The solutions were stirred by paddles at 150 RPM for approximately 12 hours. […] The standards and sample preparations were measured at 282 nm in a 1 cm cell using a UV spectrophotometer. The results were determined from the linearity curve generated from the standard data.

[2] = methanolic solution 61 mg/mL added to HCl 0.1 N
Source text: Measurements were obtained using a Sympatec HELOS model KF particle sizer with SUCELL and R5 lens (0.5-875 μm), pump, and stirrer speeds set to 50% of the maximum value.

CCC(=O)O[C@](Cc1ccccc1)(c1ccccc1)[C@H](C)CN(C)C.O=C(O)Cc1ccccc1Nc1c(Cl)cccc1Cl [Propoxyphene Diclofenate, (2S,3R)-(+)-4-(Dimethylamino)-3-methyl-1,2-diphenyl-2-butanol Propionate Diclofenate]
% Dissolved ([1]; water pH 3): 0.009% | mg Dissolved from 48 mg Solution ([1]; water pH 3): 0.004 mg | mg/mL Dissolved ([1]; water pH 3): 1.0528e-05 mg/mL | % Dissolved ([1]; water pH 5): 74.878% | mg Dissolved from 48 mg Solution ([1]; water pH 5): 36.005 mg | mg/mL Dissolved ([1]; water pH 5): 0.09 mg/mL | % Dissolved ([1]; water pH 7): 75.677% | mg Dissolved from 48 mg Solution ([1]; water pH 7): 36.644 mg | mg/mL Dissolved ([1]; water pH 7): 0.0916 mg/mL | % Dissolved ([1]; water pH 9): 71.168% | mg Dissolved from 48 mg Solution ([1]; water pH 9): 34.018 mg | mg/mL Dissolved ([1]; water pH 9): 0.08504 mg/mL | % Dissolved ([1]; water pH 11): 39.395% | mg Dissolved from 48 mg Solution ([1]; water pH 11): 18.700 mg | mg/mL Dissolved ([1]; water pH 11): 0.04676 mg/mL | Particle size Mean ([2]; 15 minutes): 152.4 μm | Particle size ≦50% ([2]; 15 minutes): 141.2 μm | Particle size ≦90% ([2]; 15 minutes): 287.9 μm | Particle size Mean ([2]; 45 minutes): 155.5 μm | Particle size ≦50% ([2]; 45 minutes): 143.0 μm | Particle size ≦90% ([2]; 45 minutes): 293.9 μm | Particle size Mean ([2]; 75 minutes): 161.7 μm | Particle size ≦50% ([2]; 75 minutes): 140.5 μm | Particle size ≦90% ([2]; 75 minutes): 308.6 μm | Particle size Mean ([2]; 120 minutes): 149.2 μm | Particle size ≦50% ([2]; 120 minutes): 135.4 μm | Particle size ≦90% ([2]; 120 minutes): 286.3 μm | Particle size Mean ([2]; 150 minutes): 124.2 μm | Particle size ≦50% ([2]; 150 minutes): 110.2 μm | Particle size ≦90% ([2]; 150 minutes): 238.4 μm

— US20050203115A1, “Narcotic-NSAID ion pairs” (priority 2004, published 2005)
